Patent publication US8192962B2, “Processes for detecting toxic substances” (Daikin Industries, Ltd., priority 2001, dated 2012)

Test system: Metabolism protein genes
Assay: DNA chip mRNA expression in yeast, metabolism protein genes (Table 7)
Assay type: cell-based, Saccharomyces cerevisiae S288C
Summary of the method: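 In this screen, yeast in logarithmic growth are challenged for two hours with a toxic substance at a non-lethal inhibitory concentration. Their mRNA, converted to Cy3- or Cy5-labeled cDNA, hybridizes at 65° C. to a chip spanning every yeast gene, and expression is expressed as a ratio to untreated cells.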

Compound: C=CC=O [(14), acrolein]
- The level of expressed mRNA in the presence of chemical substance/The level of expressed mRNA in the absence of chemical substance (yeast gene YAL012W): 0.9
- The level of expressed mRNA in the presence of chemical substance/The level of expressed mRNA in the absence of chemical substance (yeast gene YAL038W): 0.5
- level of expressed mRNA in the presence/in the absence of chemical substance (yeast gene YBR003W): 0.8
- level of expressed mRNA in the presence/in the absence of chemical substance (yeast gene YBR011C): 0.9
- level of expressed mRNA in the presence/in the absence of chemical substance (yeast gene YBR020W): 1.0
- The level of expressed mRNA in the presence of chemical substance/The level of expressed mRNA in the absence of chemical substance (yeast gene YBR023C): 0.8
- The level of expressed mRNA in the presence of chemical substance/The level of expressed mRNA in the absence of chemical substance (yeast gene YBR029C): 0.9
- The level of expressed mRNA in the presence of chemical substance/The level of expressed mRNA in the absence of chemical substance (yeast gene YBR068C): 1.8
- The level of expressed mRNA in the presence of chemical substance/The level of expressed mRNA in the absence of chemical substance (yeast gene YBR183W): 1.3
- The level of expressed mRNA in the presence of chemical substance/The level of expressed mRNA in the absence of chemical substance (yeast gene YBR222C): 0.5
- The level of expressed mRNA in the presence of chemical substance/The level of expressed mRNA in the absence of chemical substance (yeast gene YBR256C): 5.6
- The level of expressed mRNA in the presence of chemical substance/The level of expressed mRNA in the absence of chemical substance (yeast gene YCL009C): 0.7
- The level of expressed mRNA in the presence of chemical substance/The level of expressed mRNA in the absence of chemical substance (yeast gene YCL064C): 0.8
- level of expressed mRNA in the presence/in the absence of chemical substance (yeast gene YCR010C): 1.2
- level of expressed mRNA in the presence/in the absence of chemical substance (yeast gene YCR034W): 0.6
- The level of expressed mRNA in the presence of chemical substance/The level of expressed mRNA in the absence of chemical substance (yeast gene YCR048W): 0.9
- The level of expressed mRNA in the presence of chemical substance/The level of expressed mRNA in the absence of chemical substance (yeast gene YCR098C): 1.1
- The level of expressed mRNA in the presence of chemical substance/The level of expressed mRNA in the absence of chemical substance (yeast gene YDR019C): 1.6
- level of expressed mRNA in the presence/in the absence of chemical substance (yeast gene YDR050C): 1.2
- level of expressed mRNA in the presence/in the absence of chemical substance (yeast gene YDR073W): 1.2
- level of expressed mRNA in the presence/in the absence of chemical substance (yeast gene YDR123C): 0.7
- level of expressed mRNA in the presence/in the absence of chemical substance (yeast gene YDR178W): 1.5
- level of expressed mRNA in the presence/in the absence of chemical substance (yeast gene YDR277C): 1.3
- level of expressed mRNA in the presence/in the absence of chemical substance (yeast gene YDR284C): 1.3
- level of expressed mRNA in the presence/in the absence of chemical substance (yeast gene YDR345C): 0.8
- The level of expressed mRNA in the presence of chemical substance/The level of expressed mRNA in the absence of chemical substance (yeast gene YDR380W): 0.6
- level of expressed mRNA in the presence/in the absence of chemical substance (yeast gene YDR400W): 0.9
- level of expressed mRNA in the presence/in the absence of chemical substance (yeast gene YDR408C): 0.9
- level of expressed mRNA in the presence/in the absence of chemical substance (yeast gene YDR483W): 0.8
- The level of expressed mRNA in the presence of chemical substance/The level of expressed mRNA in the absence of chemical substance (yeast gene YDR497C): 0.6
- The level of expressed mRNA in the presence of chemical substance/The level of expressed mRNA in the absence of chemical substance (yeast gene YDR502C): 0.8
- The level of expressed mRNA in the presence of chemical substance/The level of expressed mRNA in the absence of chemical substance (yeast gene YDR516C): 0.7
- level of expressed mRNA in the presence/in the absence of chemical substance (yeast gene YEL063C): 0.8
- level of expressed mRNA in the presence/in the absence of chemical substance (yeast gene YER015W): 1.1
- The level of expressed mRNA in the presence of chemical substance/The level of expressed mRNA in the absence of chemical substance (yeast gene YER026C): 1.1
- The level of expressed mRNA in the presence of chemical substance/The level of expressed mRNA in the absence of chemical substance (yeast gene YER053C): 1.3
- The level of expressed mRNA in the presence of chemical substance/The level of expressed mRNA in the absence of chemical substance (yeast gene YER069W): 1.3
- level of expressed mRNA in the presence/in the absence of chemical substance (yeast gene YER081W): 1.6
- The level of expressed mRNA in the presence of chemical substance/The level of expressed mRNA in the absence of chemical substance (yeast gene YER096W): 3.1
- level of expressed mRNA in the presence/in the absence of chemical substance (yeast gene YER120W): 0.9
- The level of expressed mRNA in the presence of chemical substance/The level of expressed mRNA in the absence of chemical substance (yeast gene YER178W): 0.9
- level of expressed mRNA in the presence/in the absence of chemical substance (yeast gene YFL011W): 0.8
- The level of expressed mRNA in the presence of chemical substance/The level of expressed mRNA in the absence of chemical substance (yeast gene YFL014W): 7.3
- The level of expressed mRNA in the presence of chemical substance/The level of expressed mRNA in the absence of chemical substance (yeast gene YFL030W): 0.8
- The level of expressed mRNA in the presence of chemical substance/The level of expressed mRNA in the absence of chemical substance (yeast gene YFL031W): 0.4
- The level of expressed mRNA in the presence of chemical substance/The level of expressed mRNA in the absence of chemical substance (yeast gene YFL056C): 7.8
- The level of expressed mRNA in the presence of chemical substance/The level of expressed mRNA in the absence of chemical substance (yeast gene YFL057C): 23.4
- The level of expressed mRNA in the presence of chemical substance/The level of expressed mRNA in the absence of chemical substance (yeast gene YFR047C): 1.9
- level of expressed mRNA in the presence/in the absence of chemical substance (yeast gene YGL012W): 0.8
- The level of expressed mRNA in the presence of chemical substance/The level of expressed mRNA in the absence of chemical substance (yeast gene YGL022W): 0.5
- level of expressed mRNA in the presence/in the absence of chemical substance (yeast gene YGL115W): 1.2
- level of expressed mRNA in the presence/in the absence of chemical substance (yeast gene YGL205W): 1.0
- The level of expressed mRNA in the presence of chemical substance/The level of expressed mRNA in the absence of chemical substance (yeast gene YGL209W): 1.6
- The level of expressed mRNA in the presence of chemical substance/The level of expressed mRNA in the absence of chemical substance (yeast gene YGL248W): 1.3
- The level of expressed mRNA in the presence of chemical substance/The level of expressed mRNA in the absence of chemical substance (yeast gene YGR037C): 1.5
- The level of expressed mRNA in the presence of chemical substance/The level of expressed mRNA in the absence of chemical substance (yeast gene YGR055W): 1.2
- level of expressed mRNA in the presence/in the absence of chemical substance (yeast gene YGR096W): 1.2
- level of expressed mRNA in the presence/in the absence of chemical substance (yeast gene YGR191W): 0.7
- The level of expressed mRNA in the presence of chemical substance/The level of expressed mRNA in the absence of chemical substance (yeast gene YGR194C): 1.0
- level of expressed mRNA in the presence/in the absence of chemical substance (yeast gene YGR204W): 0.5
- The level of expressed mRNA in the presence of chemical substance/The level of expressed mRNA in the absence of chemical substance (yeast gene YGR256W): 1.1
- The level of expressed mRNA in the presence of chemical substance/The level of expressed mRNA in the absence of chemical substance (yeast gene YGR282C): 1.0
- level of expressed mRNA in the presence/in the absence of chemical substance (yeast gene YGR288W): 1.1
- level of expressed mRNA in the presence/in the absence of chemical substance (yeast gene YHR025W): 0.6
- The level of expressed mRNA in the presence of chemical substance/The level of expressed mRNA in the absence of chemical substance (yeast gene YHR111W): 1.7
- level of expressed mRNA in the presence/in the absence of chemical substance (yeast gene YHR123W): 0.8
- The level of expressed mRNA in the presence of chemical substance/The level of expressed mRNA in the absence of chemical substance (yeast gene YHR137W): 0.8
- The level of expressed mRNA in the presence of chemical substance/The level of expressed mRNA in the absence of chemical substance (yeast gene YHR174W): 0.6
- The level of expressed mRNA in the presence of chemical substance/The level of expressed mRNA in the absence of chemical substance (yeast gene YHR176W): 1.3
- level of expressed mRNA in the presence/in the absence of chemical substance (yeast gene YHR210C): 1.0
- level of expressed mRNA in the presence/in the absence of chemical substance (yeast gene YIL006W): 1.0
- The level of expressed mRNA in the presence of chemical substance/The level of expressed mRNA in the absence of chemical substance (yeast gene YIL045W): 1.6
- The level of expressed mRNA in the presence of chemical substance/The level of expressed mRNA in the absence of chemical substance (yeast gene YIL107C): 1.6
- The level of expressed mRNA in the presence of chemical substance/The level of expressed mRNA in the absence of chemical substance (yeast gene YIL154C): 0.9
- The level of expressed mRNA in the presence of chemical substance/The level of expressed mRNA in the absence of chemical substance (yeast gene YIL155C): 1.3
- The level of expressed mRNA in the presence of chemical substance/The level of expressed mRNA in the absence of chemical substance (yeast gene YIL167W): 1.4
- The level of expressed mRNA in the presence of chemical substance/The level of expressed mRNA in the absence of chemical substance (yeast gene YIR034C): 1.2
- The level of expressed mRNA in the presence of chemical substance/The level of expressed mRNA in the absence of chemical substance (yeast gene YIR036C): 1.2
- The level of expressed mRNA in the presence of chemical substance/The level of expressed mRNA in the absence of chemical substance (yeast gene YJL031C): 3.0
- The level of expressed mRNA in the presence of chemical substance/The level of expressed mRNA in the absence of chemical substance (yeast gene YJL068C): 1.5
- The level of expressed mRNA in the presence of chemical substance/The level of expressed mRNA in the absence of chemical substance (yeast gene YJL088W): 2.0
- The level of expressed mRNA in the presence of chemical substance/The level of expressed mRNA in the absence of chemical substance (yeast gene YJL099W): 1.8
- level of expressed mRNA in the presence/in the absence of chemical substance (yeast gene YJL121C): 0.9
- level of expressed mRNA in the presence/in the absence of chemical substance (yeast gene YJL167W): 0.9
- The level of expressed mRNA in the presence of chemical substance/The level of expressed mRNA in the absence of chemical substance (yeast gene YJL172W): 0.9
- level of expressed mRNA in the presence/in the absence of chemical substance (yeast gene YJL216C): 1.1
- The level of expressed mRNA in the presence of chemical substance/The level of expressed mRNA in the absence of chemical substance (yeast gene YJL219W): 1.1
- level of expressed mRNA in the presence/in the absence of chemical substance (yeast gene YJR077C): 0.7
- The level of expressed mRNA in the presence of chemical substance/The level of expressed mRNA in the absence of chemical substance (yeast gene YJR137C): 1.2
- level of expressed mRNA in the presence/in the absence of chemical substance (yeast gene YJR143C): 0.6
- The level of expressed mRNA in the presence of chemical substance/The level of expressed mRNA in the absence of chemical substance (yeast gene YJR148W): 1.3
- The level of expressed mRNA in the presence of chemical substance/The level of expressed mRNA in the absence of chemical substance (yeast gene YJR155W): 9.4
- The level of expressed mRNA in the presence of chemical substance/The level of expressed mRNA in the absence of chemical substance (yeast gene YKL035W): 0.6
